Assays:
[1] = MMV: MTT Cytotoxicity Assay Day 7 pi of Assay #11 (NO washout), U87-CD4-CXCR4 cells, % cell death @ 5mM compound; assay type: toxicity, cell-based; details: human, u87-cd4-cxcr4, 5000 µM
[2] = MMV: MTT Cytotoxicity Assay Day 3 pi, U87-CD4-CCR5 cells, % cell death @ 5mM compound; assay type: toxicity, cell-based; details: human, u87-cd4-ccr5, 5000 µM
[3] = MMV: MTT Cytotoxicity Assay Day 3 pi, U87-CD4-CXCR4 cells, % cell death @ 5mM compound; assay type: toxicity, cell-based; details: human, u87-cd4-cxcr4, 5000 µM
[4] = MMV: MTT Cytotoxicity Assay Day 7 pi of Assay #6 (compound washed out Day 1 pi), U87-CD4-CCR5 cells, % cell death @ 5mM compound; assay type: toxicity, cell-based; details: human, u87-cd4-ccr5, 5000 µM
[5] = MMV: MTT Cytotoxicity Assay Day 7 pi of Assay #10 (NO washout), U87-CD4-CCR5 cells, % cell death @ 5mM compound; assay type: toxicity, cell-based; details: human, u87-cd4-ccr5, 5000 µM
[6] = tested on: Human immunodeficiency virus 1; assay: MMV: HIV CXCR4-tropic env HxB2 pseudovirus assay produces luciferase signal in lieu of replicating viral particles Day 3 pi, U87-CD4-CXCR4, % inhibition at 5 mM compound; assay type: functional; parameters: dose or concentration left out as unconfirmed; details: Human immunodeficiency virus 1, HxB2, U87.CD4.CXCR4, 72 h
[7] = MMV: MTT Cytotoxicity Assay Day 7 pi of Assay #7 (compound washed out Day 1 pi), U87-CD4-CXCR4 cells, % cell death @ 5mM compound; assay type: toxicity, cell-based; details: human, u87-cd4-cxcr4, 5000 µM
[8] = tested on: Human immunodeficiency virus 1; assay: MMV: HIV CXCR4-tropic env NL4-3 pseudovirus assay produces luciferase signal in lieu of replicating viral particles Day 3 pi, U87-CD4-CXCR4, % inhibition at 5 mM compound; assay type: functional; parameters: dose or concentration left out as unconfirmed; details: Human immunodeficiency virus 1, NL4-3, U87.CD4.CXCR4, 72 h
[9] = tested on: Human immunodeficiency virus 1; assay: MMV: HIV JRFL CCR5-tropic replication-competent virus, virus & compound washed out Day 1 pi, P24 ELISA Day 7 pi, U87-CD4-CCR5, % inhibition at 5 mM compound; assay type: functional; parameters: dose or concentration left out as unconfirmed; details: Human immunodeficiency virus 1, JR-FL

CC(C)(C)c1ccc(C2CC3=Nc4ccccc4N(C(=O)c4ccccc4Cl)C(c4ccc(F)cc4)C3=C(O)C2)cc1 (centres undefined)
% Cell Death [1]: 5
% Cell Death [2]: -12
% Cell Death [3]: 31
% Cell Death [4]: 8
% Cell Death [5]: 28
inhibition [6]: -1%
% Cell Death [7]: 17

CCOC(=O)c1c[nH]c2c(CC)cccc2c1=O
% Cell Death [1]: 35
% Cell Death [2]: 39
% Cell Death [3]: 76
% Cell Death [4]: 36
inhibition [8]: 7%
inhibition [9]: 8%
% Cell Death [5]: -1
% Cell Death [7]: 14

Cc1cc(NC(=O)C2c3ccccc3C(=O)N(CC(C)C)C2c2cccs2)no1 (centres undefined)
% Cell Death [1]: -16
% Cell Death [2]: 23
% Cell Death [3]: 26
% Cell Death [4]: 55
inhibition [8]: 8%
inhibition [9]: 7%
% Cell Death [5]: 36
% Cell Death [7]: -20

CCOC(=O)C1=C(C)N=c2sc(=Cc3ccccc3O)c(=O)n2C1c1ccc(OC)c2ccccc12 (centres undefined)
% Cell Death [1]: 113
% Cell Death [2]: 105
% Cell Death [3]: 42
% Cell Death [4]: 40
% Cell Death [5]: 90
inhibition [6]: -1%
% Cell Death [7]: 66

O=C(NCc1ccco1)C1CCN(S(=O)(=O)c2ccc(Br)cc2)CC1
% Cell Death [1]: -5
% Cell Death [2]: 14
% Cell Death [3]: 32
% Cell Death [4]: 5
% Cell Death [5]: -12
inhibition [6]: 8%
% Cell Death [7]: -9

COc1ccc2c(=O)cc(C(Cl)(Cl)Cl)oc2c1
% Cell Death [1]: 95
% Cell Death [2]: 90
% Cell Death [3]: 41
% Cell Death [4]: 23
% Cell Death [5]: 100
inhibition [6]: 8%
% Cell Death [7]: 23

Oc1c(CN2CCN(c3ccccc3F)CC2)cc(Br)c2cccnc12
% Cell Death [1]: 34
% Cell Death [2]: 43
% Cell Death [3]: 51
% Cell Death [4]: 53
% Cell Death [5]: 92
inhibition [6]: 1%
% Cell Death [7]: 51

CCC(c1ccccc1)c1nn2c(-c3cccs3)nnc2s1 (centres undefined)
% Cell Death [1]: 73
% Cell Death [2]: 3
% Cell Death [3]: 41
% Cell Death [4]: 18
inhibition [8]: 9%
inhibition [9]: 0%
% Cell Death [5]: 41
% Cell Death [7]: 28

Oc1ccc(-c2nc(-c3ccc4oc5ccc(-c6[nH]c(-c7ccc(O)cc7)nc6-c6ccccc6)cc5c4c3)c(-c3ccccc3)[nH]2)cc1
% Cell Death [1]: 89
% Cell Death [2]: -2
% Cell Death [3]: 46
% Cell Death [4]: -12
inhibition [8]: 1%
% Cell Death [5]: 56
% Cell Death [7]: 17

N=c1n(CCN2CCCCC2)c2ccccc2n1CC(=O)c1ccc(Cl)c(Cl)c1
% Cell Death [1]: -14
% Cell Death [2]: -21
% Cell Death [3]: 9
% Cell Death [4]: -5
inhibition [8]: 0%
% Cell Death [5]: -3
% Cell Death [7]: 4

CCOc1cc2c(cc1OCC)C(c1cc(C)c(O)c(C)c1)NCC2.Cl (centres undefined)
% Cell Death [1]: -11
% Cell Death [2]: 4
% Cell Death [3]: 16
% Cell Death [4]: 18
inhibition [8]: 5%
% Cell Death [5]: -3
% Cell Death [7]: -10

O=C(Nc1ccsc1C(=O)NC1CCCCC1)c1ccc(F)cc1
% Cell Death [1]: -14
% Cell Death [2]: -22
% Cell Death [3]: 8
% Cell Death [4]: -4
inhibition [8]: 3%
inhibition [9]: -2%
% Cell Death [5]: -2
% Cell Death [7]: -43

COc1ccc(C(=O)C2CC2c2ccc(Cl)cc2)cc1 (centres undefined)
% Cell Death [1]: 35
% Cell Death [2]: 40
% Cell Death [3]: 29
% Cell Death [4]: 6
inhibition [8]: -2%
inhibition [9]: 3%
% Cell Death [5]: 32
% Cell Death [7]: 66

OC(CNCC1CCCO1)Cn1c2ccc(Cl)cc2c2cc(Cl)ccc21 (centres undefined)
% Cell Death [1]: -7
% Cell Death [2]: 11
% Cell Death [3]: 15
% Cell Death [4]: 26
inhibition [8]: 0%
% Cell Death [5]: -2
% Cell Death [7]: -28

CCC(C)NCC(O)(c1ccc(Cl)cc1)c1ccc(Cl)cc1 (centres undefined)
% Cell Death [1]: 3
% Cell Death [2]: -1
% Cell Death [3]: 23
% Cell Death [4]: -11
inhibition [8]: 2%
inhibition [9]: -2%
% Cell Death [5]: 31
% Cell Death [7]: -33

FC(F)(F)c1cccc(Nc2nc(-c3ccccc3)nc3ncccc23)c1
% Cell Death [1]: -17
% Cell Death [2]: 1
% Cell Death [3]: -16
% Cell Death [4]: 0
inhibition [8]: 9%
% Cell Death [5]: 19
% Cell Death [7]: 15

CSc1ccccc1C(=O)Nc1nc(-c2ccccn2)cs1
% Cell Death [1]: 2
% Cell Death [2]: 28
% Cell Death [3]: 86
% Cell Death [4]: 18
inhibition [8]: 4%
% Cell Death [5]: 3
% Cell Death [7]: 28

COc1cccc(NC(=O)[C@H](C(C)C)n2c(=O)[nH]c3ccccc3c2=O)c1
% Cell Death [1]: 7
% Cell Death [2]: 24
% Cell Death [3]: 20
% Cell Death [4]: 24
inhibition [8]: 0%
% Cell Death [5]: 27
% Cell Death [7]: 5

CN(C)CCNc1cc(-c2ccccc2)nc2ccccc12
% Cell Death [1]: 85
% Cell Death [2]: 26
% Cell Death [3]: 18
% Cell Death [4]: 6
inhibition [8]: 5%
% Cell Death [5]: 71
% Cell Death [7]: -12

Cc1cc(Nc2ccc(Cl)cc2)n2nc(C(F)(F)F)nc2n1
% Cell Death [1]: -18
% Cell Death [2]: 27
% Cell Death [3]: 12
% Cell Death [4]: 46
inhibition [8]: 2%
% Cell Death [5]: 56
% Cell Death [7]: -20

COc1cccc(NC(=O)Cn2c(C)c(C#N)c3ccccc32)c1
% Cell Death [1]: -1
% Cell Death [2]: 23
% Cell Death [3]: 47
% Cell Death [4]: 29
inhibition [8]: 8%
% Cell Death [5]: 12
% Cell Death [7]: -5

CCOc1cc2c(cc1OCC)C(c1cc(OC)c(O)cc1Cl)NCC2 (centres undefined)
% Cell Death [1]: 20
% Cell Death [2]: 31
% Cell Death [3]: 1
% Cell Death [4]: 7
inhibition [8]: 10%
% Cell Death [5]: 25
% Cell Death [7]: -19

Br.Cc1ccc(C)c(-c2csc(Nc3ccc(C)c(C)c3)n2)c1
% Cell Death [1]: 28
% Cell Death [2]: -10
% Cell Death [3]: 21
% Cell Death [4]: 5
inhibition [8]: -1%
% Cell Death [5]: 48
% Cell Death [7]: 39

CC1CCN(Cc2ccc(NC(=O)c3cc4ccc5cccnc5c4[nH]3)cc2)CC1
% Cell Death [1]: -7
% Cell Death [2]: 9
% Cell Death [3]: 23
% Cell Death [4]: 17
inhibition [8]: -1%
% Cell Death [5]: 3
% Cell Death [7]: -14

Cc1ccc(NC(=O)Nc2cccc(Cl)c2)cc1F
% Cell Death [1]: -5
% Cell Death [2]: -7
% Cell Death [3]: 26
% Cell Death [4]: 12
inhibition [8]: 0%
% Cell Death [5]: 8
% Cell Death [7]: -22

CCN(CC)c1cc(C)c2cc(NC(=O)c3cccc(OC)c3)ccc2n1
% Cell Death [1]: -2
% Cell Death [2]: -1
% Cell Death [3]: 5
% Cell Death [4]: 3
inhibition [8]: 7%
% Cell Death [5]: 39
% Cell Death [7]: -25

Cc1ccc2cc3c(N)c4c(C)ccc(C)c4nc3nc2c1
% Cell Death [1]: 31
% Cell Death [2]: -9
% Cell Death [3]: -14
% Cell Death [4]: 46
inhibition [8]: 5%
% Cell Death [5]: 18
% Cell Death [7]: -5

Cc1cc(C)cc(Nc2cc(C)nc3nc(C(F)(F)F)nn23)c1
% Cell Death [1]: -5
% Cell Death [2]: 10
% Cell Death [3]: 26
% Cell Death [4]: 29
inhibition [8]: 7%
% Cell Death [5]: -23
% Cell Death [7]: -6

CC(NCc1ccccc1)c1cc(Cl)ccc1O (centres undefined)
% Cell Death [1]: -3
% Cell Death [2]: 1
% Cell Death [3]: 6
% Cell Death [4]: -2
inhibition [8]: 6%
% Cell Death [5]: 26
% Cell Death [7]: -15

Cl.Oc1ccccc1CNCC12CC3CC(CC(C3)C1)C2
% Cell Death [1]: -2
% Cell Death [2]: -8
% Cell Death [3]: 15
% Cell Death [4]: 20
inhibition [8]: 3%
% Cell Death [5]: 37
% Cell Death [7]: -11

COc1ccccc1NC1=C(N2CCCCC2)C(=O)c2ccccc2C1=O
% Cell Death [1]: -50
% Cell Death [2]: 34
% Cell Death [3]: 15
% Cell Death [4]: 22
inhibition [8]: 5%
inhibition [9]: 1%
% Cell Death [5]: 19
% Cell Death [7]: 8

COc1ccc(CN2CCN(Cc3ccccc3)CC2)c(O)c1
% Cell Death [1]: 10
% Cell Death [2]: 16
% Cell Death [3]: -16
% Cell Death [4]: -1
inhibition [8]: -2%
% Cell Death [5]: 4
% Cell Death [7]: 53

CC1CC(C)CN(C(=O)c2ccc(Cl)cc2Cl)C1 (centres undefined)
% Cell Death [1]: -51
% Cell Death [2]: -5
% Cell Death [3]: 31
% Cell Death [4]: -14
inhibition [8]: -1%
inhibition [9]: 5%
% Cell Death [5]: -31
% Cell Death [7]: -16
